PubChem BioAssay AID256 (DTP/NCI, 2004)
Values joined by “and” are separate entries in the source; they are usually repeats but may differ in a detail not shown here. Equal entries are not always repeated. Toxic doses and inconclusive results are not listed. How the source made its calls: active means survival T/C of 150% or more; inactive means T/C below 125% in these data.

Tested on: CD2F1 mice, L1210 leukemia ip, survival T/C
Assay: NCI In Vivo Anticancer Drug Screen. Data for tumor model L1210 Leukemia (intraperitoneal) in CD2F1 (CDF1) mice
Conditions: higher = longer survival
Procedure, shortened: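 In this screen, transplantable tumors were grown in mice given either the compound or its vehicle. Results were expressed as the treated measurement relative to the control measurement.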

[1] = endpoint: mean survival time, dose: 100.0 mg/kg/injection, schedule: Q04DX003 (ip), vehicle: saline
[2] = endpoint: mean survival time, dose: 200.0 mg/kg/injection, schedule: Q04DX003 (ip), vehicle: saline
[3] = endpoint: mean survival time, dose: 50.0 mg/kg/injection, schedule: Q01DX009 (ip), vehicle: Klucel (hydroxypropylcellulose) (HPC)
[4] = endpoint: mean survival time, dose: 100.0 mg/kg/injection, schedule: Q01DX009 (ip), vehicle: Klucel (hydroxypropylcellulose) (HPC)
[5] = endpoint: mean survival time, dose: 50.0 mg/kg/injection, schedule: Q01DX009 (ip), vehicle: saline with Tween-80
[6] = endpoint: mean survival time, dose: 100.0 mg/kg/injection, schedule: Q04DX003 (ip), vehicle: saline with Tween-80
[7] = endpoint: mean survival time, dose: 400.0 mg/kg/injection, schedule: Q04DX003 (ip), vehicle: saline with Tween-80
[8] = endpoint: mean survival time, dose: 200.0 mg/kg/injection, schedule: Q04DX003 (ip), vehicle: saline with Tween-80
[9] = endpoint: mean survival time, dose: 100.0 mg/kg/injection, schedule: Q01DX009 (ip), vehicle: saline
[10] = endpoint: mean survival time, dose: 100.0 mg/kg/injection, schedule: Q01DX009 (ip), vehicle: saline with Tween-80

Measured: T/C

COc1ccc(CCNC(=O)Cc2ccc(OC)c(OC)c2)cc1OC
inactive: endpoint: mean survival time, dose: 50.0 mg/kg/injection, schedule: Q04DX003 (ip), vehicle: saline 93 % of control | [1] 96 % of control | [2] 96 % of control

Cc1cc(Br)cc(Br)c1OCC(=O)O
inactive: [3] 96 % of control | [4] 93 % of control | endpoint: mean survival time, dose: 200.0 mg/kg/injection, schedule: Q01DX009 (ip), vehicle: Klucel (hydroxypropylcellulose) (HPC) 96 % of control

C[C@@H]1C[C@@H]([C@H](O)CC2CC(=O)NC(=O)C2)C(=O)[C@@H](C)C1
inactive: endpoint: mean survival time, dose: 5.0 mg/kg/injection, schedule: Q01DX009 (ip), vehicle: saline 104 % of control and 109 % of control | endpoint: mean survival time, dose: 10.0 mg/kg/injection, schedule: Q01DX007 (ip), vehicle: saline 107 % of control | endpoint: mean survival time, dose: 10.0 mg/kg/injection, schedule: Q03DX003 (ip), vehicle: saline 96 % of control | endpoint: mean survival time, dose: 10.0 mg/kg/injection, schedule: Q04DX003 (ip), vehicle: saline 100 % of control | endpoint: mean survival time, dose: 20.0 mg/kg/injection, schedule: Q01DX007 (ip), vehicle: saline 107 % of control | endpoint: mean survival time, dose: 20.0 mg/kg/injection, schedule: Q03DX003 (ip), vehicle: saline 100 % of control | endpoint: mean survival time, dose: 20.0 mg/kg/injection, schedule: Q04DX003 (ip), vehicle: saline 100 % of control | endpoint: mean survival time, dose: 40.0 mg/kg/injection, schedule: Q01DX007 (ip), vehicle: saline 115 % of control | endpoint: mean survival time, dose: 40.0 mg/kg/injection, schedule: Q03DX003 (ip), vehicle: saline 104 % of control | endpoint: mean survival time, dose: 40.0 mg/kg/injection, schedule: Q04DX003 (ip), vehicle: saline 106 % of control | endpoint: mean survival time, dose: 80.0 mg/kg/injection, schedule: Q01DX009 (ip), vehicle: saline 120 % of control | endpoint: mean survival time, dose: 160.0 mg/kg/injection, schedule: Q01DX009 (ip), vehicle: saline 89 % of control | endpoint: median survival time, dose: 12.5 mg/kg/injection, schedule: Q01DX009 (ip), vehicle: saline 109 % of control | endpoint: median survival time, dose: 25.0 mg/kg/injection, schedule: Q01DX009 (ip), vehicle: saline 114 % of control and 119 % of control | endpoint: median survival time, dose: 200.0 mg/kg/injection, schedule: Q01DX009 (ip), vehicle: saline 101 % of control

Nc1ncc2c(n1)SCC2
inactive: endpoint: mean survival time, dose: 200.0 mg/kg/injection, schedule: Q01DX001 (ip), vehicle: saline 119 % of control

CC(CC(C)O)=NCCN=C(C)CC(C)O.[Ni] (stereo unspecified)
inactive: endpoint: mean survival time, dose: 1.5 mg/kg/injection, schedule: Q01DX009 (ip), vehicle: saline with Tween-80 103 % of control | endpoint: mean survival time, dose: 3.0 mg/kg/injection, schedule: Q01DX009 (ip), vehicle: saline with Tween-80 101 % of control | endpoint: mean survival time, dose: 6.0 mg/kg/injection, schedule: Q01DX009 (ip), vehicle: saline with Tween-80 105 % of control | endpoint: mean survival time, dose: 12.5 mg/kg/injection, schedule: Q01DX001 (ip), vehicle: saline 102 % of control | endpoint: mean survival time, dose: 25.0 mg/kg/injection, schedule: Q01DX001 (ip), vehicle: saline 112 % of control

COc1ccc2c(c1)N(CC(C)C[N+](C)(C)CCCCCCCCCCCCCCCC[N+](C)(C)CC(C)CN1c3ccccc3Sc3ccc(OC)cc31)c1ccccc1S2 (stereo unspecified)
inactive: [1] 91 % of control | [2] 91 % of control

O=C1C(=O)c2ccccc2-c2ccccc21.O=C1C(=O)c2ccccc2-c2ccccc21.[Hg]
inactive: endpoint: mean survival time, dose: 1.56 mg/kg/injection, schedule: Q04DX002 (ip), vehicle: saline with Tween-80 87 % of control | endpoint: mean survival time, dose: 3.13 mg/kg/injection, schedule: Q04DX002 (ip), vehicle: saline with Tween-80 98 % of control | endpoint: mean survival time, dose: 6.25 mg/kg/injection, schedule: Q04DX002 (ip), vehicle: saline with Tween-80 113 % of control

CCCCCCCCCCNCCS
inactive: endpoint: mean survival time, dose: 5.0 mg/kg/injection, schedule: Q01DX009 (ip), vehicle: saline with Tween-80 104 % of control | endpoint: mean survival time, dose: 20.0 mg/kg/injection, schedule: Q01DX009 (ip), vehicle: saline with Tween-80 93 % of control

CCOC(=O)N/N=C/C(Br)=C\c1ccccc1
inactive: endpoint: mean survival time, dose: 12.5 mg/kg/injection, schedule: Q01DX009 (ip), vehicle: saline with Tween-80 97 % of control | endpoint: mean survival time, dose: 25.0 mg/kg/injection, schedule: Q01DX009 (ip), vehicle: saline with Tween-80 92 % of control | [5] 92 % of control

Nc1ccc2c(c1)C(=O)c1ccc(N)cc1C2=O
inactive: endpoint: mean survival time, dose: 100.0 mg/kg/injection, schedule: Q01DX001 (ip), vehicle: saline with Tween-80 88 % of control | endpoint: mean survival time, dose: 200.0 mg/kg/injection, schedule: Q01DX001 (ip), vehicle: saline with Tween-80 96 % of control | endpoint: mean survival time, dose: 400.0 mg/kg/injection, schedule: Q01DX001 (ip), vehicle: saline with Tween-80 88 % of control

O=C(C=C(C(F)(F)F)C(F)(F)F)c1ccc(Cl)c2ccccc12
inactive: [6] 105 % of control

O=C1OC(c2ccccc2)(c2ccccc2)c2cccc3cccc1c23
inactive: [6] 93 % of control | [7] 86 % of control

C/C=C(\C)C1(CCC)C(=O)NC(=S)NC1=O
inactive: endpoint: mean survival time, dose: 75.0 mg/kg/injection, schedule: Q01DX001 (ip), vehicle: other 106 % of control | endpoint: mean survival time, dose: 150.0 mg/kg/injection, schedule: Q01DX001 (ip), vehicle: other 116 % of control

COc1ccc(S(=O)(=O)F)cc1NC(=O)COc1cccc(Cl)c1
inactive: [6] 96 % of control | [8] 97 % of control | [7] 103 % of control

C=C1C(=O)OC2CC1C(OC(=O)/C=C/c1ccccc1)C/C(C)=C/CC/C(C)=C/CCC2(C)O (stereo unspecified)
inactive: endpoint: mean survival time, dose: 12.5 mg/kg/injection, schedule: Q01DX009 (ip), vehicle: Klucel (hydroxypropylcellulose) (HPC) 96 % of control | endpoint: mean survival time, dose: 25.0 mg/kg/injection, schedule: Q01DX009 (ip), vehicle: Klucel (hydroxypropylcellulose) (HPC) 98 % of control | [3] 98 % of control | [4] 102 % of control

Cn1c2ccccc2c2ccc3c(c21)C(=O)C=CC3=O
inactive: endpoint: median survival time, dose: 12.5 mg/kg/injection, schedule: Q01DX009 (ip), vehicle: Klucel (hydroxypropylcellulose) (HPC) 100 % of control | endpoint: median survival time, dose: 25.0 mg/kg/injection, schedule: Q01DX009 (ip), vehicle: Klucel (hydroxypropylcellulose) (HPC) 102 % of control | endpoint: median survival time, dose: 50.0 mg/kg/injection, schedule: Q01DX009 (ip), vehicle: Klucel (hydroxypropylcellulose) (HPC) 109 % of control

S=c1[nH]n(-c2ccccc2)c(=S)s1
inactive: endpoint: mean survival time, dose: 75.0 mg/kg/injection, schedule: Q04DX003 (ip), vehicle: saline 100 % of control

O=C1NC(=O)C2(CCN(Cc3ccccc3)CC2)C(=O)N1
inactive: endpoint: mean survival time, dose: 75.0 mg/kg/injection, schedule: Q01DX001 (ip), vehicle: saline 96 % of control | endpoint: mean survival time, dose: 150.0 mg/kg/injection, schedule: Q01DX001 (ip), vehicle: saline 98 % of control | endpoint: mean survival time, dose: 300.0 mg/kg/injection, schedule: Q01DX001 (ip), vehicle: saline 96 % of control

[N-]=[N+]=NCC1OC(OC2(CO)OC(CN=[N+]=[N-])C(O)C2O)C(O)C(O)C1O (stereo unspecified)
inactive: endpoint: mean survival time, dose: 50.0 mg/kg/injection, schedule: Q01DX009 (ip), vehicle: saline 102 % of control | [9] 102 % of control

O=C(NNC1CCCCC1)c1ccccc1
inactive: endpoint: mean survival time, dose: 100.0 mg/kg/injection, schedule: Q01DX009 (ip), vehicle: acetone 103 % of control

C[N+]1(C)CCS(=O)(=O)CC1
inactive: [6] 94 % of control | [8] 95 % of control | [7] 86 % of control

CCN(C(=O)Nc1ccccc1Cl)c1ccccc1
inactive: endpoint: mean survival time, dose: 75.0 mg/kg/injection, schedule: Q04DX003 (ip), vehicle: saline with Tween-80 102 % of control | endpoint: mean survival time, dose: 150.0 mg/kg/injection, schedule: Q04DX003 (ip), vehicle: saline with Tween-80 101 % of control | endpoint: mean survival time, dose: 300.0 mg/kg/injection, schedule: Q04DX003 (ip), vehicle: saline with Tween-80 98 % of control

Nc1nc(N)c(N=O)c(N)n1
inactive: [9] 98 % of control | [1] 103 % of control | endpoint: mean survival time, dose: 200.0 mg/kg/injection, schedule: Q01DX009 (ip), vehicle: saline 97 % of control | [2] 97 % of control | endpoint: mean survival time, dose: 400.0 mg/kg/injection, schedule: Q01DX009 (ip), vehicle: saline 100 % of control | endpoint: mean survival time, dose: 400.0 mg/kg/injection, schedule: Q04DX003 (ip), vehicle: saline 102 % of control

CC(=O)OCC1OC(n2cnc3c(=S)nc(N)[nH]c32)C(OC(C)=O)C1OC(C)=O (stereo unspecified)
inactive: endpoint: mean survival time, dose: 100.0 mg/kg/injection, schedule: Q01DX005 (ip), vehicle: saline 112 % of control | endpoint: mean survival time, dose: 200.0 mg/kg/injection, schedule: Q01DX005 (ip), vehicle: saline 123 % of control

NCc1ccc([N+](=O)[O-])cc1Cl
inactive: [5] 94 % of control | [10] 94 % of control

CCOC(=O)CCCc1ccccc1
inactive: [10] 93 % of control | endpoint: mean survival time, dose: 200.0 mg/kg/injection, schedule: Q01DX009 (ip), vehicle: saline with Tween-80 95 % of control | endpoint: mean survival time, dose: 400.0 mg/kg/injection, schedule: Q01DX009 (ip), vehicle: saline with Tween-80 102 % of control
